Data on 23 compounds can be found in PubChem BioAssay AID375 (SRMLSC, 2006).

By IC50 is commonly meant the concentration needed to halve the response being measured.

SMILES strings stand for the structures.

Pantothenate synthetase (Mycobacterium tuberculosis (strain ATCC 25618 / H37Rv)), sequence (P9WIL5 whole entry, looked up): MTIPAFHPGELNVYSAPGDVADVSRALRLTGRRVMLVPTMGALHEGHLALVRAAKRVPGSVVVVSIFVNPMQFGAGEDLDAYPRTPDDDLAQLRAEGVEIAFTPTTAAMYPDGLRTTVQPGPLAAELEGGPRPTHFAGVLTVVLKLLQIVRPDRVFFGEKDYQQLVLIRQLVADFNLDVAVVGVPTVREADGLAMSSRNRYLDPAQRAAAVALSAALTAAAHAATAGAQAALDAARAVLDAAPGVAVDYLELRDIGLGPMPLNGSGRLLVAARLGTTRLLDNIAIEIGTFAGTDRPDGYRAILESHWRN

The assay addresses Pantothenate synthetase (Mycobacterium tuberculosis (strain ATCC 25618 / H37Rv)) (UniProt P9WIL5). The assay can be described thus: Recombinant Mtb pantothenate synthetase (PanC) inhibitors, coupled enzyme, confirmatory (AID 375). The following applies: coupled enzyme assay, measured here: PanC IC50 repeat trials.
For the compound `CC(C)(C)C1CCc2onc(C(=O)Nc3cnn(Cc4ccc(F)cc4)c3)c2C1` (stereo not drawn), the IC50 came out at 1.71 µM.

Take `Cc1ccc(Cn2ccc(NC(=O)c3noc4c3CCCCC4)n2)cc1`: the concentration for half-maximal inhibition (IC50) was > 100 µM.

In the case of `COc1ccccc1-c1cc(C(=O)Nc2cc(C)n(Cc3ccc(Cl)cc3)n2)no1`, the IC50 was > 100 µM.

In the case of `Cc1ccc(Cn2ccc(NC(=O)c3cc(-c4cccc(Cl)c4)on3)n2)cc1`, the IC50 was > 100 µM.

For `Cc1cc(NC(=O)c2noc3c2CCCCC3)nn1Cc1ccc(Cl)cc1`, the half-maximal inhibitory concentration (IC50) is > 100 µM.

In the case of `COc1ccc2c(c1)CCc1c(C(=O)Nc3ccn(Cc4ccc(C)cc4)n3)noc1-2`, the IC50 is > 100 µM.

As for `Cc1ccc(Cn2ccc(NC(=O)c3cc(-c4cccs4)on3)n2)cc1`, the IC50 was > 100 µM.

On to `COc1ccc2c(c1)CCc1c(C(=O)Nc3cc(C)n(Cc4ccc(Cl)cc4)n3)noc1-2`, for which the IC50 is > 100 µM.

As for `Cc1cc(NC(=O)c2cc(-c3ccco3)on2)nn1Cc1ccc(Cl)cc1`, the IC50 is > 100 µM.

Consider `COc1ccc(OC)c(-c2cc(C(=O)Nc3cc(C)n(Cc4ccc(Cl)cc4)n3)no2)c1`, for which the IC50 is > 100 µM.

Regarding `Cc1cc(NC(=O)c2cc(-c3cccs3)on2)nn1Cc1ccc(Cl)cc1`, the IC50 was > 100 µM.

`Cc1ccc(Cn2ccc(NC(=O)c3cc(-c4ccc(F)cc4)on3)n2)cc1`: the IC50 was > 100 µM.

Take `Cc1ccccc1Cn1nc(C)c(NC(=O)c2noc3c2CC(C(C)(C)C)CC3)c1C` (stereo not drawn): the IC50 is > 100 µM.

On to `COc1cccc(-c2cc(C(=O)Nc3cc(C)n(Cc4ccc(Cl)cc4)n3)no2)c1`, for which the IC50 was > 100 µM.

`Cc1cc(NC(=O)c2noc3c2CCCC3)nn1Cc1ccc(Cl)cc1`: the concentration for half-maximal inhibition (IC50) is > 100 µM.

Consider `Cc1ccccc1Cn1cc(NC(=O)c2noc3c2CC(C(C)(C)C)CC3)cn1` (stereo not drawn), for which the IC50 is 2.56 µM.

For the compound `Cc1ccc(Cn2ccc(NC(=O)c3cc(-c4ccc(Br)cc4)on3)n2)cc1`, the IC50 was > 100 µM.

Take `Cc1ccc(Cn2ccc(NC(=O)c3cc(-c4ccc(Cl)cc4)on3)n2)cc1`: the IC50 is > 100 µM.

In the case of `COc1ccc(-c2cc(C(=O)Nc3cc(C)n(Cc4ccc(Cl)cc4)n3)no2)cc1OC`, the half-inhibitory concentration (IC50) is > 100 µM.

With `Cc1ccc(Cn2ccc(NC(=O)c3cc(-c4ccccc4)on3)n2)cc1`, the IC50 was > 100 µM.

On to `Cc1ccc(Cn2ccc(NC(=O)c3noc4c3CCCC4)n2)cc1`, for which the IC50 was > 100 µM.

On to `Cc1cc(C(=O)Nc2cc(C)n(Cc3ccc(Cl)cc3)n2)no1`, for which the IC50 was > 100 µM.

For the compound `Cc1ccc(Cn2ccc(NC(=O)c3cc(-c4ccco4)on3)n2)cc1`, the IC50 was > 100 µM.
